Biological target: T1, human TGR5 (Homo sapiens, UniProt Q8TDU6)
T1 construct: expressed in transfected cells; host or cells: BHK cells
T1 sequence (Q8TDU6 1-330): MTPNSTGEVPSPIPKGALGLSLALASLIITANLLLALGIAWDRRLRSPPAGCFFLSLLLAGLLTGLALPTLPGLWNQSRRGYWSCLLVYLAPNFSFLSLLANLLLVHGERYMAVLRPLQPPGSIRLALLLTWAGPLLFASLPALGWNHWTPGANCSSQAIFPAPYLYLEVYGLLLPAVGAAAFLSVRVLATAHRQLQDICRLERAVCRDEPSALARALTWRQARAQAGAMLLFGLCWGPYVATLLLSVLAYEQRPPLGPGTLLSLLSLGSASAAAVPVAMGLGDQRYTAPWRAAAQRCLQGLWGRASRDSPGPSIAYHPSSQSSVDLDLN
Test: cAMP production in BHK cells expressing the human TGR5 (CisBio cAMP kit), normalized to LCA = 100%
Format: cell-based
Conditions: BHK cells expressing human TGR5, 30 minutes incubation
Experimental: The activity of the natural products, with respect to their TGR5 activating capacities, was analyzed as follows:
BHK cells, expressing the human TGR5, were seeded into 384-well plates and grown overnight. The next day, natural test compounds (and LCA as positive control) were incubated on the cells for 30 minutes. As TGR5 couples to […] proteins, the increase of cellular cAMP production, as a measure for TGR5 activity, was analyzed by using a commercially available cAMP kit (CisBio international). The cAMP production was measured according to the kit manufacturer's protocol. Data were normalized by setting the cAMP production induced by LCA to 100% activity. EC50 values were determined by using the GraphPad PrismSoftware (Graph. Pad Software Inc.).

SMILES	EC50 [nM]	EC50 (unit inferred) [nM]
C=CC1C(CO)=CCC2C1CCC1C(C)(C)C(=O)CCC21C (centres unmarked) [A1, 17-hydroxy-12,15-cleistanthadiene-3-one]	3000	
CCC(C)C1OC(=O)C(Cc2ccccc2)NC(=O)C(C)C/C(C)=C/C(C)C(O)/C(C)=C/C1C (centres unmarked) [A4, (8E,12E)-3-benzyl-15-sec-butyl-11-hydroxy-6,8,10,12,14-pentamethyl-1-oxa-4-azacyclopentadeca-8,12-diene-2,5-dione]		400
